Patent US12180146B2, “Antihypertensive polyol compound and derivative thereof” (TAO PHARMACEUTICAL (SUZHOU) CO., LTD, priority 2020, dated 2024)

Key:
[1] = system: spontaneously hypertensive rats (SHR); assay: Antihypertensive activity test: blood pressure and heart rate of spontaneously hypertensive rats (SHR); assay type: in vivo, rat; details: 200 mg/kg; for SHR blood pressure (SBP), time after administration 1 h / SHR blood pressure (SBP), time after administration 2 h / SHR blood pressure (SBP), time after administration 3 h / SHR blood pressure (SBP), time after administration 4 h / SHR blood pressure (SBP), time after administration 5 h / SHR blood pressure (SBP), time after administration 6 h: n = 8
How it was run: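 Spontaneously hypertensive rats received compound at 200 mg/kg. SBP and heart rate were measured before and after dosing. A drop in SBP of ≥20 mmHg from baseline counted as effective, and heart-rate changes were tested by paired t-test (P<0.05).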

[2] = system: monocrotaline-induced pulmonary hypertension model rats (MCT-PAH); assay: Monocrotaline-induced pulmonary hypertension model rats, oral (gavage) treatment for 21 days; assay type: in vivo, SD rats; details: 100 mg/kg
Text: Monocrotaline (MCT) was subcutaneously injected to establish an animal model of pulmonary hypertension in SD rats. At the same time, compound 1 was given by gavage for treatment. The pulmonary artery hemodynamics and right heart hypertrophy index RVHI of the rates were detected to determine whether the oral administration of compound 1 has effects of improving Monocrotaline induces pulmonary hypertension.
(§1) SD rats (purchased from Shanghai Xipuer-Bikai Experimental Animal Co., Ltd.), male, weighing 180-200 g, were bred in an artificially controlled animal room with each 12 hours of light and darkness at a temperature of 20-25° C. and relative humidity of 50-60%, and allowed ad libitum to food and water. The rats were randomly divided into groups according to the experimental requirements, and kept separately in cages, with 3 to 4 rats per cage. All relevant operations of animal experiments are in compliance with the provisions of “Guidelines for the Management and Use of Laboratory Animals” of China.
During the experiment, SD rats were randomly divided into 4 groups: blank control group, pulmonary hypertension model group, Selexipag (1 mg/kg) treatment group and compound 1 (100 mg/kg) group with 6 rats in each group, and the concentration in brackets represents the administration concentration of the compound, in which Selexipag is a new oral long-acting prostacyclin receptor agonist discovered and synthesized by Japan New Drug Co., Ltd. On the first day of the experiment, normal saline was injected subcutaneously into the back of neck of rats in the blank control group, and monocrotaline (Chengdu Purifa Biotechnology Co., Ltd.) solution was injected in the rats in other groups at a dosage of 60 mg/kg. Both the positive drug, Selexipag and Compound 1 were administered by gavage. Selexipag and […] were dissolved in 0.5% CMC-Na solution. The rats were continuously administered for 21 days with a volume of […]. The rats in the control and model groups were given the corresponding volume of CMC-Na solution by gavage. Specific groupings can be found in Table 7.
After the administration, the pulmonary vascular hemodynamics and RVHI was determined according to the same experiment method as that in Example 1.

[3] = system: hypoxic pulmonary hypertension model rats; assay: Hypoxic pulmonary hypertension model rats, oral (gavage) treatment for 28 days; assay type: in vivo, SD rats; details: hypoxic PAH rats, 200 mg/kg, po
Description: An animal model of pulmonary hypertension in SD rats was established in a hypoxic and low-pressure environment, and compound 1 was administered by gavage at the same time for treatment. The rat pulmonary artery hemodynamics and right heart hypertrophy index RVHI were measured to determine whether compound 1 has effects of improving hypoxic pulmonary hypertension.
as §1
The hypoxic PAH model was established by placing SD male rats in a fully-automatically regulated low-pressure hypoxic chamber (atmospheric pressure of about 50 kPa, oxygen concentration of 10%) for 8 hours a day for 28 days. The rats in the blank control group were kept in a normoxic environment.
The experimental rats of hypoxic PAH model were divided into 8 groups, namely blank control group, model group, Sidenafil (25 mg/kg) group, compound 1 (10 mg/kg) group, compound 1 (25 mg/kg) group, compound 1 (50 mg/kg) group, compound 1 (100 mg/kg) group, and compound 1 (200 mg/kg) group. The concentration in the parentheses of the group name represents the administration concentration of the compound or drug. In hypoxia-induced PAH experiments, Sidenafil is often used as a positive drug, which can reduce the pulmonary artery pressure in rats and reduce the right ventricular hypertrophy and vascular remodeling. In this experiment, 25 mg/kg of Sidenafil was used as the positive drug. Both the positive drugs Sidenafil and Compound 1 were dissolved in physiological saline and formulated into solutions of different concentrations according to different administration concentrations. The rats were continuously administered for 28 days with an administration volume of 5 ml/kg. Rats in the control and model groups were given the corresponding volume of physiological saline solution via gavage. The specific grouping can be found in Table 5.
After the administration was completed, the POWERLAB biological information acquisition and treatment system was started, and the right cardiac catheter filled with 0.2% heparin sodium (Beijing Solo Technology Co. Ltd.) in normal saline was connected to the pressure transducer and then zero-calibrationed for use. After 20% urethane (Shanghai Yuanye Biotechnology Co., Ltd.) solution was injected into the abdominal cavity of the rats for anesthesia, the right neck hair was shaved and the right jugular vein was isolated and exposed. […] After the typical right ventricular waveform appeared and stabilized for a while, the waveform was recorded, and then the pressure value was read by Powerlab biological information acquisition and processing system (ADInstruments).
After the pressure was measured, the catheter was taken out, and the rat was dissected immediately to take out the heart and lung tissues. The right ventricle (RV) and the left ventricle and interventricular septum (LV+S) were separated and weighed, and the right heart hypertrophy index RVHI=RV/(LV+S) was calculated. The lung lobe tissue from the right lower part of the lung was separated, soaked in 4% paraformaldehyde (Sigma) for about 1 week to prepare a paraffin section with a thickness of 3 μm, and then conducted to hematoxylin-eosin staining (Wuhan Guge Biotechnology Co., Ltd.). […]

[4] = system: monocrotaline-induced pulmonary hypertension model rats (MCT-PAH); assay: Monocrotaline-induced pulmonary hypertension model rats, aerosol inhalation treatment; assay type: in vivo, SD rats; details: 30 mg/kg, inh, 28 days
Description: A pulmonary hypertension animal model of SD rats was established by subcutaneous injection of monocrotaline (MCT). The compound 1 was administered by aerosol inhalation for treatment. The pulmonary artery hemodynamics and right heart hypertrophy index RVHI of rats were tested to determine whether compound 1 administered by aerosol inhalation has effects of improving monocrotaline-induced pulmonary hypertension.
as §1
In the second experiment, the rats were divided into 5 groups, namely the control group, model group, positive control Tyvaso (1.62 μg/kg) group, compound 1 (10 mg/kg) group and compound 1 (30 mg/kg) group. On the first day of the experiment, normal saline was injected subcutaneously into the back of the neck of the rats in the blank control group, and monocrotaline (Chengdu Purifa Biotechnology Co., Ltd.) solution was injected in the other groups at a dosage of 60 mg/kg. Compound 1 and Tyvaso were administered by aerosol inhalation, that is, the compound was firstly dissolved in physiological saline, and then the solution was prepared into an aerosol with a nebulizer to be inhaled into the mouth and nose of rats. The rats in the control group and the model group only inhaled an aerosol made of physiological saline. The rats were continuously administered for 28 days, and the concentration in the parentheses of the group name represents the administered concentration of the compound. Specific groupings can be found in Table 9. After the administration, the pulmonary vascular hemodynamics and RVHI were determined in the same way as the experiment method in Example 1.

| SMILES | SBP Difference before and after administration, 1 h [1] | SHR blood pressure (SBP), time after administration 1 h [1] | SBP Difference before and after administration, 2 h [1] | SHR blood pressure (SBP), time after administration 2 h [1] | SBP Difference before and after administration, 3 h [1] | SHR blood pressure (SBP), time after administration 3 h [1] | SBP Difference before and after administration, 4 h [1] | SHR blood pressure (SBP), time after administration 4 h [1] | SBP Difference before and after administration, 5 h [1] | SHR blood pressure (SBP), time after administration 5 h [1] | SBP Difference before and after administration, 6 h [1] | SHR blood pressure (SBP), time after administration 6 h [1] | 2 × MT/ED [2] | RVHI [2] | RVSP [2] | mPAP [2] | 2 × MT/ED [3] | RVHI [3] | RVSP [3] | mPAP [3] | also measured |
| --- | --- | --- | --- | --- | --- | --- | --- | --- | --- | --- | --- | --- | --- | --- | --- | --- | --- | --- | --- | --- | --- |
| CCc1ccccc1C(O)CO (stereo not shown) [Compound 5] | 20 mmHg | 169 ± 6.32 mmHg | 15 mmHg | 174 ± 4.56 mmHg | 18 mmHg | 171 ± 9.34 mmHg | 16 mmHg | 173 ± 13.66 mmHg | 15 mmHg | 174 ± 15.9 mmHg | 11 mmHg | 178 ± 8.48 mmHg | 0.29 ± 0.054 | 0.35 ± 0.048 | 44.32 ± 2.12 mmHg | 15.76 ± 2.71 mmHg | 0.270 ± 0.012 | 0.271 ± 0.038 | 60.29 ± 3.87 mmHg | 15.76 ± 2.71 mmHg | 2 × MT/ED [4]: 0.390 ± 0.038; RVHI [4]: 0.324 ± 0.053; RVSP [4]: 40.18 ± 4.62 mmHg; mPAP [4]: 11.06 ± 2.95 mmHg |
| COc1cccc(C(O)CO)c1 (stereo not shown) [Compound 8] | 6 mmHg | 188 ± 12.4 mmHg | 13 mmHg | 181 ± 12.7 mmHg | 18 mmHg | 176 ± 11.1 mmHg | 18 mmHg | 176 ± 10.3 mmHg | 14 mmHg | 180 ± 11.3 mmHg | 8 mmHg | 186 ± 10.4 mmHg | 0.31 ± 0.052 | 0.33 ± 0.037 | 45.97 ± 3.49 mmHg | 16.47 ± 3.07 mmHg | 0.277 ± 0.022 | 0.296 ± 0.027 | 62.50 ± 2.91 mmHg | 17.19 ± 3.65 mmHg | SBP Difference before and after administration, 0 h ([1]; 0 h): 0 mmHg; 2 × MT/ED [4]: 0.353 ± 0.043; RVHI [4]: 0.306 ± 0.027; RVSP [4]: 45.92 ± 3.47 mmHg; mPAP [4]: 14.16 ± 3.84 mmHg |
